# Measured values published in US20250122174A1 (Shenzhen Yuanli Shenwan Innovative Medicine Co., Ltd., priority 2022, published 2025).
# Target: HPK1 (Homo sapiens (Human), UniProt Q92918)
# Assay: HPK1 Inhibition Assay (ADP-Glo kinase assay)
# Type: biochemical
# Details: ATP 10 μM
# Outline: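 ADP-Glo luminescence read-out after 1 h room-temperature kinase reaction with 10 μM ATP and 0.1 μg/ml MBP. Recombinant human HPK1 at 7.5 ng/μl; buffer 40 mM Tris pH 7.5, 20 mM MgCl2. Compounds serially diluted 5-fold over 10 points from 10 mM DMSO stock.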
# Chain of HPK1 (Q92918 1-346 limits assumed): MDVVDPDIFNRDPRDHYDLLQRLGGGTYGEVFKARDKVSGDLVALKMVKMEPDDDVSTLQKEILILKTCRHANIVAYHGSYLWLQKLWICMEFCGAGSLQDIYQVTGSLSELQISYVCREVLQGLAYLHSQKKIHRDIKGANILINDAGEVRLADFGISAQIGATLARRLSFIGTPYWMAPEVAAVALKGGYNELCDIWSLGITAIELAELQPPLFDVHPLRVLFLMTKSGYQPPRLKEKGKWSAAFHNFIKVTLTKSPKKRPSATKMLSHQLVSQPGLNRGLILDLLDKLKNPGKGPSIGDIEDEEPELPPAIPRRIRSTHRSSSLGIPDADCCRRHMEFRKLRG
row,IC50 [µM],Structure (SMILES)
1,0.1 to 1,"Cc1nc2c(N3C[C@@H](N)C[C@H]3CO)c(NC(=O)c3ccc(=O)n(-c4c(F)cccc4F)n3)ccc2n1C [Example 68, N-(4-((2S,4S)-4-amino-2-(hydroxymethyl)amidazole-1-yl)-1,2-dimethyl-1H-benzo[d]amidazole-5-yl)-1-(2,6-difluorophenyl)-6-oxo-1,6-dihydropyridazine-3-carboxamide]"
2,< 0.1,"Cc1nc2c(N3CCC(C)(N)CC3)c(NC(=O)c3ccc(=O)n(-c4c(F)cccc4F)n3)ccc2n1C [Example 76, N-(4-(4-amino-4-methylpiperidin-1-yl)-1,2-dimethyl-1H-benzo[d]imidazol-5-yl)-1-(2,6-difluorophenyl)-6-oxo-1,6-dihydropyridazine-3-carboxamide]"
3,< 0.1,"CC(C)n1ncc2c(N3C[C@H](N)C4(CC4)C3)c(NC(=O)c3ccc(=O)n(-c4c(F)cccc4F)n3)cc(F)c21 [Example 189, (R)-N-(4-(7-amino-5-azaspiro[2.4]heptan-5-yl)-7-fluoro-1-isopropyl-1H-indazol-5-yl)-1-(2,6-difluorophenyl)-6-oxo-1,6-dihydropyridazine-3-carboxamide]"
4,< 0.1,"CO[C@H]1CN(c2c(NC(=O)c3ccc(=O)n(-c4c(F)cccc4F)n3)ccc3c2cnn3C(C)C)C[C@H]1N [Example 205, N-(4-((3R,4S)-3-amino-4-methoxypyrrolidin-1-yl)-1-isopropyl-1H-indazol-5-yl)-1-(2,6-difluorophenyl)-6-oxo-1,6-dihydropyridazine-3-carboxamide]"
5,< 0.1,"Cc1nc2c(N3CCC4(CC3)CNC4)c(NC(=O)c3ccc(=O)n(-c4c(F)cccc4F)n3)ccc2n1C [Example 78, 1-(2,6-difluorophenyl)-N-(1,2-dimethyl-4-(2,7-diazaspiro[3.5]nonan-7-yl)-1H-benzo[d]imidazol-5-yl)-6-oxo-1,6-dihydropyridazine-3-carboxamide]"
6,< 0.1,"COc1cccc(F)c1-n1cccc(C(=O)Nc2cc(F)ccc2N2C[C@H]3C[C@@H]2CN3)c1=O [Example 51, N-(2-((1R,4R)-2,5-diazabicyclo[2.2.1]heptan-2-yl)-5-fluorophenyl)-1-(2-fluoro-6-methoxyphenyl)-2-oxo-1,2-dihydropyridine-3-carboxamide]"
7,< 0.1,"C[C@@H]1CN(c2c(NC(=O)c3ccc(=O)n(-c4c(F)cccc4F)n3)ccc3c2cnn3[C@H]2CCCOC2)C[C@@H]1N [Example 253, N-(4-((3R,4R)-3-amino-4-methylpyrrolidin-1-yl)-1-((S)-tetrahydro-2H-pyran-3-yl)-1H-indazol-5-yl)-1-(2,6-difluorophenyl)-6-oxo-1,6-dihydropyridazine-3-carboxamide]"
8,0.1 to 1,"COc1cccc(Cl)c1-c1nccc(C(=O)Nc2cc(F)ccc2N2C[C@H]3C[C@@H]2CN3)c1F [Example 6, N-(2-((1R,4R)-2,5-diazabicyclo[2.2.1]heptan-2-yl)-5-fluorophenyl)-2-(2-chloro-6-methoxyphenyl)-3-fluoroisonicotinamide]"
9,< 0.1,"CN[C@@H]1CCN(c2c(NC(=O)c3ccc(=O)n(-c4c(F)cccc4F)n3)ccc3c2nc(C(C)C)n3C)C1 [Example 127, (R)-1-(2,6-difluorophenyl)-N-(2-isopropyl-1-methyl-4-(3-(methylamino)pyrrolidin-1-yl)-1H-benzo[d]imidazol-5-yl)-6-oxo-1,6-dihydropyridazine-3-carboxamide]"
10,< 0.1,"C[C@H]1CN(c2c(NC(=O)c3ccc(=O)n(-c4c(F)cccc4F)n3)ccc3nn(C4(C)CCC4)cc23)C[C@@H]1N [Example 321, N-(4-((3R,4S)-3-amino-4-methylpyrrolidin-1-yl)-2-(1-methylcyclobutyl)-2H-indazol-5-yl)-1-(2,6-difluorophenyl)-6-oxo-1,6-dihydropyridazine-3-carboxamide]"
11,< 0.1,"CC[C@@H](C)n1ncc2c(N3C[C@@H](C)[C@@H](N)C3)c(NC(=O)c3ccc(=O)n(-c4c(F)cccc4F)n3)ccc21 [Example 257, N-(4-((3R,4R)-3-amino-4-methylpyrrolidin-1-yl)-1-((R)-sec-butyl)-1H-indazol-5-yl)-1-(2,6-difluorophenyl)-6-oxo-1,6-dihydropyridazine-3-carboxamide]"
12,< 0.1,"COc1cccc(F)c1-c1nccc(C(=O)Nc2ccc(-c3cnccc3C#N)cc2N2CC[C@H](N)C2)c1F [Example 12, N-(2-((S)-3-aminopyrrolidin-1-yl)-4-(4-cyanopyridin-3-yl)phenyl)-3-fluoro-2-(2-fluoro-6-methoxyphenyl)isonicotinamide]"
13,< 0.1,"CC(C)n1ncc2c(N3C[C@H](N)C(C)(C)C3)c(NC(=O)c3ccc(=O)n(-c4c(F)cccc4F)n3)ccc21 [Example 186, (R)-N-(4-(4-amino-3,3-dimethylpyrrolidin-1-yl)-1-isopropyl-1H-indazol-5-yl)-1-(2,6-difluorophenyl)-6-oxo-1,6-dihydropyridazine-3-carboxamide]"
14,< 0.1,"CC(C)c1nc2c(N3CCC(N)CC3)c(NC(=O)c3ccc(=O)n(-c4c(F)cccc4F)n3)ccc2n1C [Example 133, N-(4-(4-aminopiperidin-1-yl)-2-isopropyl-1-methyl-1H-benzo[d]imidazol-5-yl)-1-(2,6-difluorophenyl)-6-oxo-1,6-dihydropyridazine-3-carboxamide]"
15,< 0.1,"COc1cccc(F)c1-c1nccc(C(=O)Nc2ccc3c(nc(C)n3C)c2N2CCC(N)CC2)c1F [Example 8, N-(4-(4-aminopiperidin-1-yl)-1,2-dimethyl-1H-benzo[d]imidazol-5-yl)-3-fluoro-2-(2-fluoro-6-methoxyphenyl)isonicotinamide]"
16,< 0.1,"Cn1ncc2c(N3CC[C@@H](N)C3)c(NC(=O)c3ccc(=O)n(-c4c(F)cccc4F)n3)ccc21 [Example 167, (R)-N-(4-(3-aminopyrrolidin-1-yl)-1-methyl-1H-indazol-5-yl)-1-(2,6-difluorophenyl)-6-oxo-1,6-dihydropyridazine-3-carboxamide]"
17,< 0.1,"CC1(C)CN(c2c(NC(=O)c3ccc(=O)n(-c4c(F)cccc4F)n3)ccc3nn(C4(C(F)(F)F)CC4)cc23)C[C@@H]1N (single isomer, unassigned) [Example 314]"
18,< 0.1,"CC(C)n1cc2c(N3CCC[C@@H]3CN)c(NC(=O)c3ccc(=O)n(-c4c(F)cccc4F)n3)ccc2n1 [Example 225, (R)-N-(4-(2-(aminomethyl)pyrrolidin-1-yl)-2-isopropyl-2H-indazol-5-yl)-1-(2,6-difluorophenyl)-6-oxo-1,6-dihydropyridazine-3-carboxamide]"
19,< 0.1,"CC(C)c1nc2c(N3CC[C@@](C)(N)C3)c(NC(=O)c3ccc(=O)n(-c4c(F)cccc4F)n3)ccc2n1C [Example 123, (R)-N-(4-(3-amino-3-methylpyrrolidin-1-yl)-2-isopropyl-1-methyl-1H-benzo[d]imidazol-5-yl)-1-(2,6-difluorophenyl)-6-oxo-1,6-dihydropyridazine-3-carboxamide]"
20,< 0.1,"CC(C)n1nc(Cl)c2c(N3CC[C@@H](N)C3)c(NC(=O)c3ccc(=O)n(-c4c(F)cccc4F)n3)cc(F)c21 [Example 190, (R)-N-(4-(3-aminopyrrolidin-1-yl)-3-chloro-7-fluoro-1-isopropyl-1H-indazol-5-yl)-1-(2,6-difluorophenyl)-6-oxo-1,6-dihydropyridazine-3-carboxamide]"
21,< 0.1,"COCc1nc2c(N3CC[C@H](N)C3)c(NC(=O)c3ccnn(-c4c(F)cccc4F)c3=O)ccc2n1C [Example 44, (S)—N-(4-(3-aminopyrrolidin-1-yl)-2-(methoxymethyl)-1-methyl-1H-benzo[d]imidazol-5-yl)-2-(2,6-difluorophenyl)-3-oxo-2,3-dihydropyridazine-4-carboxamide]"
22,< 0.1,"N#Cc1ccncc1-c1ccc(NC(=O)c2ccc(=O)n(-c3c(F)cccc3F)n2)c(N2C[C@H](N)C[C@H]2CO)c1 [Example 351, N-(2-((2S,4R)-4-amino-2-(hydroxymethyl)pyrrolidin-1-yl)-4-(4-cyanopyridin-3-yl)phenyl)-1-(2,6-difluorophenyl)-6-oxo-1,6-dihydropyridazine-3-carboxamide]"
23,< 0.1,"CCn1ncc2c(N3CC[C@@H](N)C3)c(NC(=O)c3ccc(=O)n(-c4c(F)cccc4F)n3)ccc21 [Example 292, (R)-N-(4-(3-aminopyrrolidin-1-yl)-1-ethyl-1H-indazol-5-yl)-1-(2,6-difluorophenyl)-6-oxo-1,6-dihydropyridazine-3-carboxamide]"
24,< 0.1,"C[C@@H]1CN(c2c(NC(=O)c3ccc(=O)n(-c4c(F)cccc4F)n3)ccc3nn(C4CCC(F)(F)CC4)cc23)C[C@@H]1N [Example 332, N-(4-((3R,4R)-3-amino-4-methylpyrrolidin-1-yl)-2-(4,4-difluorocyclohexyl)-2H-indazol-5-yl)-1-(2,6-difluorophenyl)-6-oxo-1,6-dihydropyridazine-3-carboxamide]"
25,< 0.1,"N[C@H]1CN(c2c(NC(=O)c3ccc(=O)n(-c4c(F)cccc4F)n3)ccc3c2cnn3[C@H]2CCCOC2)CC12CC2 [Example 271, N-(4-((R)-7-amino-5-azaspiro[2.4]heptan-5-yl)-1-((S)-tetrahydro-2H-pyran-3-yl)-1H-indazol-5-yl)-1-(2,6-difluorophenyl)-6-oxo-1,6-dihydropyridazine-3-carboxamide]"
26,< 0.1,"C[C@@H]1CN(c2c(NC(=O)c3ccc(=O)n(-c4c(F)cccc4F)n3)ccc3nn(C4CCCC4)cc23)C[C@@H]1N [Example 333, N-(4-((3R,4R)-3-amino-4-methylpyrrolidin-1-yl)-2-cyclopentyl-2H-indazol-5-yl)-1-(2,6-difluorophenyl)-6-oxo-1,6-dihydropyridazine-3-carboxamide]"
27,< 0.1,"Cn1c(C(C)(C)C)nc2c(N3CC[C@H](N)C3)c(NC(=O)c3ccc(=O)n(-c4c(F)cccc4F)n3)ccc21 [Example 98, N-{4-[(3S)-3-aminopyrrolidin-1-yl]-2-tert-butyl-1-methyl-1,3-benzodiazol-5-yl}-1-(2,6-difluorophenyl)-6-oxopyridazine-3-carboxamide]"
